From patent EP0013144A1, “Substituted diphenylamine derivatives, compositions and herbicidal uses thereof, and processes for their preparation” (ICI AUSTRALIA LIMITED, priority 1978, dated 1980)

Assays:
Type in all cases: in vivo
Mustard = assay: Pre-emergence herbicidal activity (Example 31); settings: after three weeks
Method in brief: (§1)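 Glasshouse test: sown seed boxes sprayed pre-emergence with diluted formulation, unsprayed boxes as reference. Visual damage scored 0–3+ after 3 weeks.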

Japanese millet = assay: Pre-emergence herbicidal activity (Example 31); settings: after three weeks
Method in brief: as §1

Sunflower = assay: Pre-emergence herbicidal activity (Example 31); settings: after three weeks
Method in brief: as §1

Ipomea = assay: Pre-emergence herbicidal activity (Example 31); settings: after three weeks
Method in brief: as §1

Wheat = assay: Post-emergence herbicidal activity (Example 32); design: key: 0-3 scale: 0 = 0-25% damage, 3 = 75-99% kill, 3+ = 100% kill; settings: 3 weeks after spraying
Method in brief: (§2)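 Compounds applied as diluted emulsifiable concentrates (toluene with nonylphenol ethoxylate/calcium dodecylbenzene sulfonate) or ball-milled aqueous suspensions, sprayed onto glasshouse plants about 10–12.5 cm tall. Damage assessed visually 3 weeks later versus untreated controls on a 0–3 scale (0 = 0–25% damage, 3 = 75–99% kill, 3+ = 100% kill).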

Ryegrass [1] = assay: Pre-emergence herbicidal activity (Example 31); design: key: 0-3 scale: 0 = 0-25% damage, 3 = 75-99% kill, 3+ = 100% kill; settings: after three weeks
Method in brief: as §1

Cotton [2] = assay: Pre-emergence herbicidal test, fibre trays (Example 33); settings: after 21 days
Method: (§3) The compounds were formulated for test by mixing an appropriate amount with 5 ml of an emulsion prepared by diluting 160 ml of a solution containing 21.S g per litre of "Span" 80 and 78.2 g per litre of "Tween" 20 in methylcyclohexanone to 500 ml with water. "Span" 80 is a Trade Mark for a surface-active agent comprising sorbitan monolaurate. "Tween" 20 is a Trade Mark for a surface-active agent comprising a condensate of sorbitan monolaurate with 20 molar proportions of ethylene oxide. Each 5 ml emulsion containing a test compound was'then diluted to 40 ml with water and sprayed on to young pot plants (post-emergence test) of the species named in Table 5 below. Damage to test plants was assessed after 14 days on a scale of 0 to 5 where 0 is 0 to 20% damage and 5 is complete kill. In a test for pre-emergence herbicidal activity, seeds of the test plants were sown in a shallow slit formed in the surface of soil in fibre trays. The surface was then levelled and sprayed, and fresh soil then spread thinly over the sprayed surface. Assessment of herbicidal damage was carried out after 21 days using the same scale of 0 to 5 as the post-emergence test. In both cases the degree of herbicidal damage was assessed by comparison with untreated control plants. A dash (-) means that no experiment was carried out.

Senecio vulgaris = assay: as above; settings: after 21 days
Method: as §3

Soy bean [3] = assay: as above; settings: after 21 days
Method: as §3

Sugar beet [4] = assay: as above; settings: after 21 days
Method: as §3

Rape = assay: as above; settings: after 21 days
Method: as §3

Ipomea purpurea [5] = assay: as above; settings: after 21 days
Method: as §3

Winter wheat = assay: as above; settings: after 21 days
Method: as §3

Maize = assay: as above; design: key: 0 = 0-20% damage, 5 = complete kill, vs untreated control; settings: after 21 days
Method: as §3

Rice = assay: as above; design: key: 0 is 0 to 20% damage; 5 is complete kill; settings: after 21 days
Method: as §3

Ryegrass [6] = assay: Post-emergence herbicidal activity (Example 32); settings: 3 weeks after spraying
Method in brief: as §2

Cotton [7] = assay: Post-emergence herbicidal test, young pot plants (Example 33); settings: after 14 days
Method: as §3

Soy bean [8] = assay: as above; settings: after 14 days
Method: as §3

Sugar beet [9] = assay: as above; settings: after 14 days
Method: as §3

Chenopodium album = assay: as above; settings: after 14 days
Method: as §3

Amaranthus retroflexus = assay: as above; settings: after 14 days
Method: as §3

Ipomea purpurea [10] = assay: as above; settings: after 14 days
Method: as §3

SMILES	damage to plants, Ms (Mustard; 1 kg/ha)	damage to plants, Ms (Mustard; 5 kg/ha)	damage to plants, Jm (Japanese millet; 1 kg/ha)	damage to plants, Jm (Japanese millet; 5 kg/ha)	damage to plants, Sf (Sunflower; 1 kg/ha)	damage to plants, Sf (Sunflower; 5 kg/ha)	damage to plants, Ip (Ipomea; 1 kg/ha)	damage to plants, Ip (Ipomea; 5 kg/ha)	damage to plants, Wh (Wheat; 1 kg/ha)	damage to plants, Wh (Wheat; 5 kg/ha)	damage to plants, Rg (Ryegrass [1]; 1 kg/ha)	damage to plants, Rg (Ryegrass [1]; 5 kg/ha)	damage to plants, Rg (Ryegrass [6]; 1 kg/ha)	damage to plants, Rg (Ryegrass [6]; 5 kg/ha)	herbicidal damage, Ct (Cotton [2]; 2.0 kg/ha)	herbicidal damage, Sn (Senecio vulgaris; 2.0 kg/ha)	herbicidal damage, Sy (Soy bean [3]; 2.0 kg/ha)	herbicidal damage, Sb (Sugar beet [4]; 2.0 kg/ha)	herbicidal damage, Rp (Rape; 2.0 kg/ha)	herbicidal damage, Ip (Ipomea purpurea [5]; 2.0 kg/ha)	further results
COC(=O)C(C)Oc1ccc(Nc2ccc(Cl)cc2[N+](=O)[O-])cc1 (centres unmarked) [Compound 28]	0 (0 represents from 0 to 25% damage)	0 (0 represents from 0 to 25% damage)	3+ (3+ represents 100% kill)	3+ (3+ represents 100% kill)	0 (0 represents from 0 to 25% damage)	0 (0 represents from 0 to 25% damage)	0 (0 represents from 0 to 25% damage)	0 (0 represents from 0 to 25% damage)	3 (3 represents 75 to 99% kill)	3+ (3+ represents 100% kill)	3 (3 represents 75 to 99% kill)	3+ (3+ represents 100% kill)	3+ (3+ represents 100% kill)	3+ (3+ represents 100% kill)							herbicidal damage, Ct (Cotton [2]; 1.0 kg/ha): 0 (0 is 0 to 20% damage); herbicidal damage, Sn (Senecio vulgaris; 1.0 kg/ha): 0 (0 is 0 to 20% damage); herbicidal damage, Sy (Soy bean [3]; 1.0 kg/ha): 0 (0 is 0 to 20% damage); herbicidal damage, Sb (Sugar beet [4]; 1.0 kg/ha): 0 (0 is 0 to 20% damage); herbicidal damage, Rp (Rape; 1.0 kg/ha): 0 (0 is 0 to 20% damage); herbicidal damage, Ip (Ipomea purpurea [5]; 1.0 kg/ha): 0 (0 is 0 to 20% damage); herbicidal damage, Ww (Winter wheat; 1.0 kg/ha): 2; herbicidal damage, Mz (Maize; 1.0 kg/ha): 0 (0 is 0 to 20% damage); herbicidal damage, Rc (Rice; 1.0 kg/ha): 1; damage to test plants, Ct (Cotton [7]; 1.0 kg/ha): 0 (0 is 0 to 20% damage); damage to test plants, Sy (Soy bean [8]; 1.0 kg/ha): 0 (0 is 0 to 20% damage); damage to test plants, Sb (Sugar beet [9]; 1.0 kg/ha): 1; damage to test plants, Ca (Chenopodium album; 1.0 kg/ha): 0 (0 is 0 to 20% damage); damage to test plants, Am (Amaranthus retroflexus; 1.0 kg/ha): 0 (0 is 0 to 20% damage); damage to test plants, Ip (Ipomea purpurea [10]; 1.0 kg/ha): 0 (0 is 0 to 20% damage)
COC(=O)C(C)Oc1ccc(N(C)c2ccc(Cl)cc2[N+](=O)[O-])cc1 (centres unmarked) [Compound 27]	0 (0 represents from 0 to 25% damage)	0 (0 represents from 0 to 25% damage)	1	3 (3 represents 75 to 99% kill)	0 (0 represents from 0 to 25% damage)	0 (0 represents from 0 to 25% damage)	0 (0 represents from 0 to 25% damage)	0 (0 represents from 0 to 25% damage)	2	3+ (3+ represents 100% kill)	1	3 (3 represents 75 to 99% kill)	3+ (3+ represents 100% kill)	3+ (3+ represents 100% kill)	0 (0 is 0 to 20% damage)	1	0 (0 is 0 to 20% damage)	0 (0 is 0 to 20% damage)	0 (0 is 0 to 20% damage)	0 (0 is 0 to 20% damage)	herbicidal damage, Ww (Winter wheat; 2.0 kg/ha): 1; herbicidal damage, Mz (Maize; 2.0 kg/ha): 1; herbicidal damage, Rc (Rice; 2.0 kg/ha): 5; damage to test plants, Ct (Cotton [7]; 2.0 kg/ha): 0 (0 is 0 to 20% damage); damage to test plants, Sy (Soy bean [8]; 2.0 kg/ha): 0 (0 is 0 to 20% damage); damage to test plants, Sb (Sugar beet [9]; 2.0 kg/ha): 0 (0 is 0 to 20% damage); damage to test plants, Ca (Chenopodium album; 2.0 kg/ha): 0 (0 is 0 to 20% damage); damage to test plants, Am (Amaranthus retroflexus; 2.0 kg/ha): 0 (0 is 0 to 20% damage); damage to test plants, Ip (Ipomea purpurea [10]; 2.0 kg/ha): 0 (0 is 0 to 20% damage)
C#CCN(c1ccc(OC(C)C(=O)OC)cc1)c1ccc(C(F)(F)F)cc1[N+](=O)[O-] (centres unmarked) [Compound 81]	0 (0 represents from 0 to 25% damage)	0 (0 represents from 0 to 25% damage)	3+ (3+ represents 100% kill)	3+ (3+ represents 100% kill)	0 (0 represents from 0 to 25% damage)	0 (0 represents from 0 to 25% damage)	0 (0 represents from 0 to 25% damage)	0 (0 represents from 0 to 25% damage)	2	3 (3 represents 75 to 99% kill)	3 (3 represents 75 to 99% kill)	3+ (3+ represents 100% kill)	3 (3 represents 75 to 99% kill)	3+ (3+ represents 100% kill)	0 (0 is 0 to 20% damage)	0 (0 is 0 to 20% damage)	0 (0 is 0 to 20% damage)	0 (0 is 0 to 20% damage)	0 (0 is 0 to 20% damage)	0 (0 is 0 to 20% damage)	herbicidal damage, Ww (Winter wheat; 2.0 kg/ha): 4; herbicidal damage, Mz (Maize; 2.0 kg/ha): 3; herbicidal damage, Rc (Rice; 2.0 kg/ha): 4; damage to test plants, Ct (Cotton [7]; 2.0 kg/ha): 0 (0 is 0 to 20% damage); damage to test plants, Sy (Soy bean [8]; 2.0 kg/ha): 0 (0 is 0 to 20% damage); damage to test plants, Sb (Sugar beet [9]; 2.0 kg/ha): 3; damage to test plants, Ca (Chenopodium album; 2.0 kg/ha): 0 (0 is 0 to 20% damage); damage to test plants, Am (Amaranthus retroflexus; 2.0 kg/ha): 0 (0 is 0 to 20% damage); damage to test plants, Ip (Ipomea purpurea [10]; 2.0 kg/ha): 0 (0 is 0 to 20% damage)
COC(=O)C(C)Oc1ccc(Nc2ccc(Br)cc2[N+](=O)[O-])cc1 (centres unmarked) [Compound 29]	0 (0 represents from 0 to 25% damage)	0 (0 represents from 0 to 25% damage)	2	3 (3 represents 75 to 99% kill)	0 (0 represents from 0 to 25% damage)	0 (0 represents from 0 to 25% damage)	0 (0 represents from 0 to 25% damage)	0 (0 represents from 0 to 25% damage)	2	3+ (3+ represents 100% kill)	2	3 (3 represents 75 to 99% kill)	3 (3 represents 75 to 99% kill)	3+ (3+ represents 100% kill)	0 (0 is 0 to 20% damage)	3	0 (0 is 0 to 20% damage)	0 (0 is 0 to 20% damage)	0 (0 is 0 to 20% damage)	0 (0 is 0 to 20% damage)	herbicidal damage, Ww (Winter wheat; 2.0 kg/ha): 3; herbicidal damage, Mz (Maize; 2.0 kg/ha): 1; herbicidal damage, Rc (Rice; 2.0 kg/ha): 3; damage to test plants, Ct (Cotton [7]; 2.0 kg/ha): 0 (0 is 0 to 20% damage); damage to test plants, Sy (Soy bean [8]; 2.0 kg/ha): 2; damage to test plants, Sb (Sugar beet [9]; 2.0 kg/ha): 0 (0 is 0 to 20% damage); damage to test plants, Ca (Chenopodium album; 2.0 kg/ha): 0 (0 is 0 to 20% damage); damage to test plants, Am (Amaranthus retroflexus; 2.0 kg/ha): 0 (0 is 0 to 20% damage); damage to test plants, Ip (Ipomea purpurea [10]; 2.0 kg/ha): 0 (0 is 0 to 20% damage)
